Measured values published in ChEMBL document CHEMBL1201862, “PubChem BioAssay data set” (2004).
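In this assay, cells in 96-well plates receive the compound at five concentrations for 48 hours. Endpoints are linearly interpolated between the surrounding concentrations. Abbreviation: GI50, concentration required for 50% inhibition of growth.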 Calls of active or inactive are those of the source. No stated cut-off is given here; in the data, active = GI50 up to about 1.1 µM and inactive = higher.

Columns and labels:
Experiment in all cases: DTP human tumour cell line panel, 48 h
SNB-75 = system: SNB-75
ACHN = system: ACHN
CCRF-CEM = system: CCRF-CEM
MDA-MB-435 = system: MDA-MB-435
NCI-H522 = system: NCI-H522
UACC-257 = system: UACC-257
MDA-N = system: MDA-N
UO-31 = system: UO-31
UACC-62 = system: UACC-62
NCI-H23 = system: NCI-H23
DU-145 = system: DU-145
BT-549 = system: BT-549
SK-MEL-28 = system: SK-MEL-28
COLO 205 = system: COLO 205
SN12C = system: SN12C
NCI/ADR-RES = system: NCI/ADR-RES
MDA-MB-231 = system: MDA-MB-231
786-0 = system: 786-0
PC-3 = system: PC-3
HCT-116 = system: HCT-116
U-251 = system: U-251
SNB-19 = system: SNB-19
NCI-H460 = system: NCI-H460
OVCAR-4 = system: OVCAR-4
A498 = system: A498
CAKI-1 = system: CAKI-1
Hs-578T = system: Hs-578T
HOP-92 = system: HOP-92
OVCAR-3 = system: OVCAR-3
HCT-15 = system: HCT-15
HCC 2998 = system: HCC 2998
T47D = system: T47D
LOX IMVI = system: LOX IMVI
SW-620 = system: SW-620
HOP-62 = system: HOP-62
Malme-3M = system: Malme-3M
OVCAR-8 = system: OVCAR-8
HT-29 = system: HT-29
IGROV-1 = system: IGROV-1
SF-268 = system: SF-268
EKVX = system: EKVX
SK-MEL-2 = system: SK-MEL-2
SK-MEL-5 = system: SK-MEL-5
NCI-H226 = system: NCI-H226
KM12 = system: KM12
TK-10 = system: TK-10
RPMI-8226 = system: RPMI-8226
SR = system: SR
OVCAR-5 = system: OVCAR-5
SK-OV-3 = system: SK-OV-3
K562 = system: K562
MCF7 = system: MCF7
RXF 393 = system: RXF 393
M14 = system: M14
SF-539 = system: SF-539
A549 = system: A549
SF-295 = system: SF-295
MOLT-4 = system: MOLT-4

For `O=c1c(C(c2ccc(O)cc2)c2c(O)oc3ccccc3c2=O)c(O)oc2ccccc12`, the GI50 (SNB-75) was 30.9 µM (inactive), the GI50 (ACHN) was > 100 µM (inactive) and the GI50 (CCRF-CEM) was 74.3 µM (inactive). For the same compound, the GI50 (MDA-MB-435) was 98.9 µM (inactive), the GI50 (NCI-H522) was 22.5 µM (inactive) and the GI50 (UACC-257) was > 100 µM (inactive). The GI50 (MDA-N) was 45.2 µM (inactive), the GI50 (UO-31) was > 100 µM (inactive) and the GI50 (UACC-62) was 79.1 µM (inactive). For the same compound, the GI50 (NCI-H23) was > 100 µM (inactive), the GI50 (DU-145) was > 100 µM (inactive) and the GI50 (BT-549) was 59.8 µM (inactive). The GI50 (SK-MEL-28) was 55.5 µM (inactive), the GI50 (COLO 205) was 69.8 µM (inactive) and the GI50 (SN12C) was 56.8 µM (inactive). For the same compound, the GI50 (NCI/ADR-RES) was > 100 µM (inactive), the GI50 (MDA-MB-231) was 31.6 µM (inactive) and the GI50 (786-0) was 58.2 µM (inactive). The GI50 (PC-3) was > 100 µM (inactive), the GI50 (HCT-116) was > 100 µM (inactive) and the GI50 (U-251) was 34.9 µM (inactive). The GI50 (SNB-19) was 71.8 µM (inactive), the GI50 (NCI-H460) was > 100 µM (inactive) and the GI50 (OVCAR-4) was > 100 µM (inactive). For the same compound, the GI50 (A498) was > 100 µM (inactive), the GI50 (CAKI-1) was 85.9 µM (inactive) and the GI50 (Hs-578T) was > 100 µM (inactive). The GI50 (HOP-92) was 78.5 µM (inactive), the GI50 (OVCAR-3) was 76.9 µM (inactive) and the GI50 (HCT-15) was 36.6 µM. The GI50 (HCC 2998) was 46.3 µM (inactive), the GI50 (T47D) was > 100 µM (inactive) and the GI50 (LOX IMVI) was 45.2 µM (inactive). For the same compound, the GI50 (SW-620) was 44.5 µM (inactive), the GI50 (HOP-62) was 96.8 µM (inactive) and the GI50 (Malme-3M) was 86.9 µM (inactive). For the same compound, the GI50 (OVCAR-8) was 48.8 µM (inactive), the GI50 (HT-29) was 97.1 µM (inactive) and the GI50 (IGROV-1) was 66.2 µM (inactive). For the same compound, the GI50 (SF-268) was 16.2 µM (inactive), the GI50 (EKVX) was > 100 µM (inactive) and the GI50 (SK-MEL-2) was > 100 µM (inactive). The GI50 (SK-MEL-5) was 83.8 µM (inactive), the GI50 (NCI-H226) was > 100 µM (inactive) and the GI50 (KM12) was > 100 µM (inactive). The GI50 (TK-10) was > 100 µM (inactive).

With `CCCCOc1ccc(S(=O)(=O)N/C(N)=N/c2ccc(Cl)cc2)cc1` the GI50 (SNB-75) was 17.9 µM (inactive), the GI50 (ACHN) was 14.6 µM (inactive) and the GI50 (NCI-H522) was 10.5 µM (inactive). The GI50 (UACC-257) was 14.1 µM (inactive), the GI50 (RPMI-8226) was 17.2 µM (inactive) and the GI50 (MDA-N) was 16.2 µM (inactive). The GI50 (UO-31) was 14.8 µM (inactive), the GI50 (UACC-62) was 14.1 µM (inactive) and the GI50 (NCI-H23) was 15.7 µM (inactive). For the same compound, the GI50 (DU-145) was 17.4 µM (inactive), the GI50 (BT-549) was 17.8 µM (inactive) and the GI50 (SR) was 3.27 µM (inactive). For the same compound, the GI50 (OVCAR-5) was 17.7 µM (inactive), the GI50 (SK-MEL-28) was 16.7 µM (inactive) and the GI50 (SK-OV-3) was 19.1 µM (inactive). For the same compound, the GI50 (COLO 205) was 25.2 µM (inactive), the GI50 (SN12C) was 14.9 µM (inactive) and the GI50 (NCI/ADR-RES) was 16 µM (inactive). The GI50 (MDA-MB-231) was 15.6 µM (inactive), the GI50 (786-0) was 14.7 µM (inactive) and the GI50 (PC-3) was 17.3 µM (inactive). For the same compound, the GI50 (HCT-116) was 15.2 µM (inactive), the GI50 (U-251) was 14.8 µM (inactive) and the GI50 (K562) was 15 µM (inactive). For the same compound, the GI50 (SNB-19) was 16.9 µM (inactive), the GI50 (NCI-H460) was 17.1 µM (inactive) and the GI50 (MCF7) was 12.4 µM (inactive). For the same compound, the GI50 (RXF 393) was 16.1 µM (inactive), the GI50 (OVCAR-4) was 10.2 µM (inactive) and the GI50 (A498) was 12.1 µM (inactive). The GI50 (Hs-578T) was 20.1 µM (inactive), the GI50 (HOP-92) was 10.8 µM (inactive) and the GI50 (OVCAR-3) was 14.9 µM (inactive). The GI50 (HCT-15) was 14 µM, the GI50 (T47D) was 10.7 µM (inactive) and the GI50 (LOX IMVI) was 17.3 µM (inactive). For the same compound, the GI50 (SW-620) was 15.5 µM (inactive), the GI50 (HOP-62) was 20.2 µM (inactive) and the GI50 (Malme-3M) was 14.6 µM (inactive). The GI50 (OVCAR-8) was 16.1 µM (inactive), the GI50 (HT-29) was 18.3 µM (inactive) and the GI50 (IGROV-1) was 14.7 µM (inactive). For the same compound, the GI50 (SF-268) was 14.3 µM (inactive), the GI50 (EKVX) was 10.3 µM (inactive) and the GI50 (SK-MEL-2) was 17.1 µM (inactive). For the same compound, the GI50 (M14) was 18.7 µM (inactive), the GI50 (SK-MEL-5) was 18.9 µM (inactive) and the GI50 (SF-539) was 20.9 µM (inactive). For the same compound, the GI50 (NCI-H226) was 19.9 µM (inactive), the GI50 (KM12) was 17.9 µM (inactive) and the GI50 (A549) was 19.5 µM (inactive). The GI50 (TK-10) was 14.9 µM (inactive), the GI50 (SF-295) was 18.3 µM (inactive) and the GI50 (MOLT-4) was 11.2 µM (inactive).
